From ChEMBL document CHEMBL5352495, “Development of novel pyrazole, imidazo[1,2-b]pyrazole, and pyrazolo[1,5-a]pyrimidine derivatives as a new class of COX-2 inhibitors with immunomodulatory potential” (Eur J Med Chem, 2023)

Assays:
[1] = molecular target: T1, Prostaglandin G/H synthase 2 (Homo sapiens, UniProt P35354)
T1 sequence (P35354 whole entry): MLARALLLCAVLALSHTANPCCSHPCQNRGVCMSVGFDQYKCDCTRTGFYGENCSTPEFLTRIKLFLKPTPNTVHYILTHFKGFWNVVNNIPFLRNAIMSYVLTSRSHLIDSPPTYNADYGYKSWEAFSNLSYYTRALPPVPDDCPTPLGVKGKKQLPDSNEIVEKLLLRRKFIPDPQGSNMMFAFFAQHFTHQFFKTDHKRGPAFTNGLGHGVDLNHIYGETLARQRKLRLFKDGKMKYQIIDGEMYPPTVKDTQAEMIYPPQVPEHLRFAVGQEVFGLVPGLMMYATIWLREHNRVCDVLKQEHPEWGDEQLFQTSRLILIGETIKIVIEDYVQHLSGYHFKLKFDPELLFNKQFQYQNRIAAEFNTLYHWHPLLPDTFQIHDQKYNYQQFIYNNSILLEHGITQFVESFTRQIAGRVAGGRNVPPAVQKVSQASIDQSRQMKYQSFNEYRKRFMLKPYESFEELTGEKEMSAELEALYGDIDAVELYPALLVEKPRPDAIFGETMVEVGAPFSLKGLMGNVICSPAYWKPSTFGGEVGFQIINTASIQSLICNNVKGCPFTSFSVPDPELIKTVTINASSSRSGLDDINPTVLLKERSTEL
Description: Inhibition of COX-2 (unknown origin) incubated for 5 to 10 mins by fluorometric analysis

[2] = tested on: RAW264.7; assay: Anti-inflammatory activity against LPS-stimulated mouse RAW264.7 cells assessed as inhibition of IL-6 expression at 10 ug by qRT-PCR analysis relative to control; format: functional; parameters: scale not given: the % may be the effect or the level left; settings: dose 10 µg
[3] = tested on: RAW264.7; assay: Anti-inflammatory activity against LPS-stimulated mouse RAW264.7 cells assessed as inhibition of TNF alpha expression at 10 ug by qRT-PCR analysis relative to control; format: functional; parameters: scale not given: the % may be the effect or the level left; settings: dose 10 µg

| Structure (SMILES) | IC50 [1] | Activity [2] | Activity [3] |
| --- | --- | --- | --- |
| Nc1n[nH]c(N=c2c(=O)c3ccccc3c2=O)c1/N=N/c1ccc(O)cc1 | 61.4 µM | – | – |
| N#Cc1c(-c2ccccc2Cl)nc2c(/N=N/c3ccc(O)cc3)c(N)nn2c1N | 84.8 µM | – | – |
| Nc1n[nH]c(/N=C2/C(=O)Nc3ccc(S(=O)(=O)N4CCCC4)cc32)c1/N=N/c1ccc(O)cc1 | 36.5 µM | – | – |
| Cc1cc(C)n2nc(N)c(/N=N/c3ccc(O)cc3)c2n1 | 46.3 µM | – | – |
| CCOC(=O)C1=Nc2c(/N=N/c3ccc(O)cc3)c(N)nn2C1=O | 79.3 µM | – | – |
| COc1ccc(-c2nc3c(/N=N/c4ccc(O)cc4)c(N)nn3c(N)c2C#N)cc1 | 21.1 µM | – | – |
| Nc1nn2c(-c3cccs3)cc(-c3cccs3)nc2c1/N=N/c1ccc(O)cc1 | 3.37 µM | 70.3% | 59.2% |
| CC1=Nc2c(/N=N/c3ccc(O)cc3)c(N)nn2C1=O | 295 µM | – | – |
| Cc1ccc(-c2cc(C(F)(F)F)nn2-c2ccc(S(N)(=O)=O)cc2)cc1 [CELECOXIB] | – | 76.8% | 72.7% |

Now from value to compound, other results behind:

| IC50 [1] | Structure (SMILES) | Activity [2] | Activity [3] |
| --- | --- | --- | --- |
| 15.9 µM | CC(=O)Nc1nn2c(NC(C)=O)cc(=O)[nH]c2c1/N=N/c1ccc(O)cc1 | – | – |
| 67.5 µM | COC(=O)c1cc(=O)n2nc(N)c(/N=N/c3ccc(O)cc3)c2[nH]1 | – | – |
| 125 µM | CCOC(=O)CC(=O)Nc1[nH]nc(N)c1/N=N/c1ccc(O)cc1 | – | – |
| 5.68 µM | Cc1cc(=O)n2nc(N)c(/N=N/c3ccc(O)cc3)c2[nH]1 | 65.8% | 63.1% |
